According to the supplement of paper PMC11061612:

Assays:
Carboplatin = compound: C1CC(C1)(C(=O)[O-])C(=O)[O-].N.N.[Pt+2] [Carboplatin]; details: max 10 µM
How it was run: (§1)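 Cancer cell lines were dosed for 72 hours (final DMSO typically 0.2%) after 24 hours at 37°C and 5% CO2 in 1536-well plates containing 7.5 μl DMEM/F12 or RPMI with 10% FBS. Viability came from CellTiter-Glo 2.0 luminescence, scaled between blank-well and DMSO-well means, and dose responses were fitted to a two-parameter logistic curve with a non-linear mixed effects model. The single-agent IC50 was obtained from this fit.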

AZD5363 = compound: C1CN(CCC1(C(=O)N[C@@H](CCO)C2=CC=C(C=C2)Cl)N)C3=NC=NC4=C3C=CN4 [AZD5363]; details: max 10 µM
How it was run: as §1

AZD1775 = compound: C=CCn1c(=O)c2cnc(Nc3ccc(N4CCN(C)CC4)cc3)nc2n1-c1cccc(C(C)(C)O)n1 [AZD1775]; details: max 3 µM
How it was run: as §1

Trametinib = compound: CC(=O)Nc1cccc(-n2c(=O)n(C3CC3)c(=O)c3c(Nc4ccc(I)cc4F)n(C)c(=O)c(C)c32)c1 [Trametinib]; details: max 1 µM
How it was run: as §1

Paclitaxel = compound: CC(=O)O[C@H]1C(=O)[C@@]2(C)[C@H]([C@H](OC(=O)c3ccccc3)[C@]3(O)C[C@H](OC(=O)[C@H](O)[C@@H](NC(=O)c4ccccc4)c4ccccc4)C(C)=C1C3(C)C)[C@]1(OC(C)=O)CO[C@@H]1C[C@@H]2O [Paclitaxel]; details: max 3 µM
How it was run: as §1

Palbociclib = compound: CC(=O)c1c(C)c2cnc(Nc3ccc(N4CCNCC4)cn3)nc2n(C2CCCC2)c1=O [Palbociclib]; details: max 10 µM
How it was run: as §1

AZD1390 = compound: CC(C)n1c(=O)n(C)c2cnc3cc(F)c(-c4ccc(OCCCN5CCCCC5)nc4)cc3c21 [AZD1390]; details: max 0.3 µM
How it was run: as §1

Venetoclax = compound: CC1(C)CCC(CN2CCN(c3ccc(C(=O)NS(=O)(=O)c4ccc(NCC5CCOCC5)c([N+](=O)[O-])c4)c(Oc4cnc5[nH]ccc5c4)c3)CC2)=C(c2ccc(Cl)cc2)C1 [Venetoclax]; details: max 1 µM
How it was run: as §1

Dasatinib = compound: CC1=C(C(=CC=C1)Cl)NC(=O)C2=CN=C(S2)NC3=CC(=NC(=N3)C)N4CCN(CC4)CCO [Dasatinib]; details: max 2 µM
How it was run: as §1

SG3199 = compound: CC1=CN2[C@@H](C1)C=NC3=CC(=C(C=C3C2=O)OC)OCCCCCOC4=C(C=C5C(=C4)N=C[C@@H]6CC(=CN6C5=O)C)OC [SG3199]; details: max 0.001 µM
How it was run: as §1

AZD2811 = compound: CCN(CCO)CCCOc1ccc2c(Nc3cc(CC(=O)Nc4cccc(F)c4)[nH]n3)ncnc2c1 [AZD2811]; details: max 1 µM
How it was run: as §1

SN-38 = compound: CCc1c2c(nc3ccc(O)cc13)-c1cc3c(c(=O)n1C2)COC(=O)[C@]3(O)CC [SN-38]; details: max 0.3 µM
How it was run: as §1

AZD0156 = compound: CN(C)CCCOc1ccc(-c2ccc3ncc4c(c3c2)n(C2CCOCC2)c(=O)n4C)cn1 [AZD0156]; details: max 3 µM
How it was run: as §1

AZD4320 = compound: CN(CC[C@H](CSC1=CC=CC=C1)NC2=C(C=C(C=C2)S(=O)(=O)NC(=O)C3=CC=C(C=C3)N4CCC(CC4)[C@H](C5=CC=CC=C5C6=CC=C(C=C6)Cl)O)S(=O)(=O)C(F)(F)F)CCO [AZD4320]; details: max 1 µM
How it was run: as §1

Alisertib = compound: COc1cc(Nc2ncc3c(n2)-c2ccc(Cl)cc2C(c2c(F)cccc2OC)=NC3)ccc1C(=O)O [Alisertib]; details: max 10 µM
How it was run: as §1

Etoposide = compound: COc1cc([C@@H]2c3cc4c(cc3[C@@H](O[C@@H]3O[C@@H]5CO[C@@H](C)O[C@H]5[C@H](O)[C@H]3O)[C@H]3COC(=O)[C@H]23)OCO4)cc(OC)c1O [Etoposide]; details: max 10 µM
How it was run: as §1

Gefitinib = compound: COc1cc2ncnc(Nc3ccc(F)c(Cl)c3)c2cc1OCCCN1CCOCC1 [Gefitinib]; details: max 10 µM
How it was run: as §1

Prexasertib = compound: COc1cccc(OCCCN)c1-c1cc(Nc2cnc(C#N)cn2)n[nH]1 [Prexasertib]; details: max 1 µM
How it was run: as §1

Doxorubicin = compound: COc1cccc2c1C(=O)c1c(O)c3c(c(O)c1C2=O)C[C@@](O)(C(=O)CO)C[C@@H]3O[C@H]1C[C@H](N)[C@H](O)[C@H](C)O1 [Doxorubicin]; details: max 1 µM
How it was run: as §1

AZD5153 = compound: COc1nnc2ccc(N3CCC(c4ccc(OCCN5CCN(C)C(=O)[C@H]5C)cc4)CC3)nn12 [AZD5153]; details: max 1 µM
How it was run: as §1

Lapatinib = compound: CS(=O)(=O)CCNCc1ccc(-c2ccc3ncnc(Nc4ccc(OCc5cccc(F)c5)c(Cl)c4)c3c2)o1 [Lapatinib]; details: max 10 µM
How it was run: as §1

AZD8186 = compound: C[C@@H](Nc1cc(F)cc(F)c1)c1cc(C(=O)N(C)C)cc2c(=O)cc(N3CCOCC3)oc12 [AZD8186]
How it was run: as §1

Crizotinib = compound: C[C@@H](Oc1cc(-c2cnn(C3CCNCC3)c2)cnc1N)c1c(Cl)ccc(F)c1Cl [Crizotinib]; details: max 10 µM
How it was run: as §1

Savolitinib = compound: C[C@@H](c1ccc2nccn2c1)n1nnc2ncc(-c3cnn(C)c3)nc21 [Savolitinib]; details: max 1 µM
How it was run: as §1

AZD6738 = compound: C[C@@H]1COCCN1C2=NC(=NC(=C2)C3(CC3)[S@](=N)(=O)C)C4=C5C=CNC5=NC=C4 [AZD6738]; details: max 10 µM
How it was run: as §1

AZD5991 = compound: Cc1c2c(nn1C)CSCc1cc(n(C)n1)CSc1cc(c3ccccc3c1)OCCCc1c(C(=O)O)n(C)c3c-2c(Cl)ccc13 [AZD5991]; details: max 1 µM
How it was run: as §1

AZD7648 = compound: Cc1cc2ncnn2cc1Nc1ncc2c(n1)n(C1CCOCC1)c(=O)n2C [AZD7648]; details: max 10 µM
How it was run: as §1

Taselisib = compound: Cc1nc(-c2cn3c(n2)-c2ccc(-c4cnn(C(C)(C)C(N)=O)c4)cc2OCC3)n(C(C)C)n1 [Taselisib]; details: max 10 µM
How it was run: as §1

Selumetinib = compound: Cn1cnc2c(F)c(Nc3ccc(Br)cc3Cl)c(C(=O)NOCCO)cc21 [Selumetinib]; details: max 10 µM
How it was run: as §1

SRA737 = compound: N#Cc1cnc(Nc2cc(NC[C@H]3CNCCO3)c(C(F)(F)F)cn2)cn1 [SRA737]; details: max 10 µM
How it was run: as §1

MK-2206 = compound: NC1(c2ccc(-c3nc4ccn5c(=O)[nH]nc5c4cc3-c3ccccc3)cc2)CCC1 [MK-2206]; details: max 10 µM
How it was run: as §1

Gemcitabine = compound: Nc1ccn([C@@H]2O[C@H](CO)[C@@H](O)C2(F)F)c(=O)n1 [Gemcitabine]; details: max 0.3 µM
How it was run: as §1

[1] = compound: O=C(Nc1ccc2[nH]nc(-c3ccncc3)c2c1)[C@@H]1CCN(CC(=O)N2CCN(c3ccc(-c4ncccn4)cc3)CC2)C1; details: max 5 µM
How it was run: as §1

Olaparib = compound: O=C(c1cc(Cc2n[nH]c(=O)c3ccccc23)ccc1F)N1CCN(C(=O)C2CC2)CC1 [Olaparib]; details: max 10 µM
How it was run: as §1

5-Fluorouracil = compound: O=c1[nH]cc(F)c(=O)[nH]1 [5-Fluorouracil]; details: max 20 µM
How it was run: as §1

Capivasertib = compound: C1CN(CCC1(C(=O)N[C@@H](CCO)C2=CC=C(C=C2)Cl)N)C3=NC=NC4=C3C=CN4 [Capivasertib]; details: max 10 µM
How it was run: as §1

Cell Line	IC50, cell viability 72 h (Carboplatin) [nM]	IC50, cell viability 72 h (AZD5363) [nM]	IC50, cell viability 72 h (AZD1775) [nM]	IC50, cell viability 72 h (Trametinib) [nM]	IC50, cell viability 72 h (Paclitaxel) [nM]	IC50, cell viability 72 h (Palbociclib) [nM]	IC50, cell viability 72 h (AZD1390) [nM]	IC50, cell viability 72 h (Venetoclax) [nM]	IC50, cell viability 72 h (Dasatinib) [nM]	IC50, cell viability 72 h (SG3199) [nM]	IC50, cell viability 72 h (AZD2811) [nM]	IC50, cell viability 72 h (SN-38) [nM]	IC50, cell viability 72 h (AZD0156) [nM]	IC50, cell viability 72 h (AZD4320) [nM]	IC50, cell viability 72 h (Alisertib) [nM]	IC50, cell viability 72 h (Etoposide) [nM]	IC50, cell viability 72 h (Gefitinib) [nM]	IC50, cell viability 72 h (Prexasertib) [nM]	IC50, cell viability 72 h (Doxorubicin) [nM]	IC50, cell viability 72 h (AZD5153) [nM]	IC50, cell viability 72 h (Lapatinib) [nM]	IC50, cell viability 72 h (AZD8186; max 10 µM) [nM]	IC50, cell viability 72 h (Crizotinib) [nM]	IC50, cell viability 72 h (Savolitinib) [nM]	IC50, cell viability 72 h (AZD6738) [nM]	IC50, cell viability 72 h (AZD5991) [nM]	IC50, cell viability 72 h (AZD7648) [nM]	IC50, cell viability 72 h (Taselisib) [nM]	IC50, cell viability 72 h (Selumetinib) [nM]	IC50, cell viability 72 h (SRA737) [nM]	IC50, cell viability 72 h (MK-2206) [nM]	IC50, cell viability 72 h (Gemcitabine) [nM]	IC50, cell viability 72 h [1] [nM]	IC50, cell viability 72 h (Olaparib) [nM]	IC50, cell viability 72 h (5-Fluorouracil) [nM]	IC50, cell viability 72 h (Capivasertib) [nM]	IC50, cell viability 72 h (AZD8186; max 3 µM) [nM]
Becker (Low Grade Glioma)	> 10000	> 10000	> 3000	> 1000	6.48	> 10000	> 300	> 1000	> 2000	> 1	> 1000	28.5	> 3000	> 1000	> 10000	> 10000	> 10000	94.1	> 1000	> 1000	> 10000	3900	> 10000	> 1000	> 10000	> 1000	> 10000	3430	> 10000	> 10000	> 10000	> 300	> 5000	> 10000	> 20000	–	–
CHL-1 (Melanoma)	> 10000	> 10000	1680	> 1000	19.2	> 10000	> 300	> 1000	> 2000	> 1	> 1000	143	> 3000	> 1000	> 10000	8950	> 10000	76.8	> 1000	594	9960	> 10000	> 10000	> 1000	2730	> 1000	> 10000	8260	> 10000	> 10000	> 10000	218	> 5000	> 10000	> 20000	–	–
CML-T1 (Chronic Myelogenous Leukemia)	> 10000	7380	429	262	4.8	222	> 300	585	< 2	> 1	> 1000	0.718	> 3000	54.1	142	92.6	> 10000	6.27	62.8	> 1000	> 10000	> 10000	692	> 1000	1110	> 1000	> 10000	> 10000	4000	588	2050	12.5	> 5000	5750	19500	–	–
COLO-684 (Endometrial Carcinoma)	> 10000	4510	701	> 1000	558	> 10000	> 300	> 1000	> 2000	> 1	> 1000	228	> 3000	> 1000	> 10000	> 10000	> 10000	19.9	> 1000	578	> 10000	8930	> 10000	> 1000	4440	> 1000	> 10000	4200	> 10000	5200	7210	134	> 5000	> 10000	> 20000	–	–
ES-2 (Ovarian Carcinoma)	–	–	476	128	–	> 10000	> 300	> 1000	> 2000	> 1	> 1000	14.5	> 3000	> 1000	596	–	> 10000	40.1	> 1000	875	> 10000	–	> 10000	> 1000	3780	> 1000	> 10000	> 10000	7430	–	4400	–	–	> 10000	–	> 10000	> 3000
